According to US20110177970A1, “METHODS FOR PREDICTING OR MONITORING WHETHER A PATIENT AFFECTED BY A CANCER IS RESPONSIVE TO A TREATMENT WITH A MOLECULE OF THE TAXOID FAMILY” (Inserm (Institut National de la Sante et de la Recherche …, priority 2008, published 2011):

Tests used:
[1] = test system: 3B1 clone (clonally-derived IGR-CaP1 cells); test: WST1 cell proliferation assay, cytotoxic effect of docetaxel, clone 3B1; type: cell-based, human
Source text: (§1) The data represent the mean of three different experiments, the error bars represent the SEM.
(§2) Several clonally-derived cells were obtained from the parental IGR-CaP1 cells by limit dilutions.

[2] = test system: 3A11 clone (clonally-derived IGR-CaP1 cells); test: WST1 cell proliferation assay, cytotoxic effect of docetaxel, clone 3A11; type: cell-based, human
Source text: as §1, §2

parental IGR-CaP1 cells = test: WST1 cell proliferation assay, cytotoxic effect of docetaxel, parental cells; type: cell-based, human; details: docetaxel 1.25 nM to 50 nM, 72 h
Source text: as §1, §2

[3] = test system: breast cancer metastatic tumours; details: cited from earlier work
[4] = test system: patients treated with docetaxel; details: from the beginning or in a secondary way; cited from earlier work
[5] = test system: docetaxel resistant cells; details: cited from earlier work

Structure (SMILES)	effect on proliferation compared to parental IGR-CaP1 cells ([1]; 3B1 clone vs parental, p<0.001)	cell proliferation (WST1) ([1]; 3B1 clone, docetaxel 1.25 nM to 50 nM, 72 h)	effect on proliferation compared to parental IGR-CaP1 cells ([2]; 3A11 clone vs parental, p<0.001)	cell proliferation (WST1) ([2]; 3A11 clone, docetaxel 1.25 nM to 50 nM, 72 h)	cell proliferation (WST1) (parental IGR-CaP1 cells)	metastatic tumours that respond [3] [%]	patients who develop a resistance to the chemotherapy [4]	apoptosis [5]	expression of clusterin [5]
CC(=O)O[C@@]12CO[C@@H]1C[C@H](O)[C@@]1(C)C(=O)[C@H](O)C3=C(C)[C@@H](OC(=O)[C@H](O)[C@@H](NC(=O)OC(C)(C)C)c4ccccc4)C[C@@](O)([C@@H](OC(=O)c4ccccc4)[C@H]21)C3(C)C [docetaxel]	significantly lower extent	decreased cell proliferation in a dose-dependent manner	significantly lower extent	decreased cell proliferation in a dose-dependent manner	decreased cell proliferation in a dose-dependent manner	30 to 50	almost half of the patients		
Oc1ccc(C=Cc2cc(O)cc(O)c2)cc1 [resveratrol]								increase of apoptosis	decreased expression of clusterin
